Experimental data taken from US9328369B2, “Process for production of useful substance, and surfactant for use in the process” (priority 2009, dated 2016).

Key:
[1] = test system: Escherichia coli (β); test: Screening of secretion efficiency, TorA expressing strain; format: cell-based; details: surfactant 1 wt %; 37° C., 1 hour; ELISA, anti-His-tag antibody
Excerpt: A torA gene of an Escherichia coli strain W3110 was amplified by the PCR method using primers 3 and 4 (Table 4). After being treated with restriction enzymes NdeI and BamHI, a PCR fragment was bound to an NdeI restriction enzyme site and a BamHI restriction enzyme site of a pET-22b plasmid (product of Novagen). Then, the plasmid was transformed into an AG1 (DE3) Escherichia coli strain to form a TorA expressing strain (β). Localization of the expressed TorA in a periplasmic fraction was confirmed by conducting an analysis based on the method disclosed in page 121 of Vol. 353 of METHODS IN ENZYMOLOGY (2002).
A pdxA gene of an Escherichia coli strain W3110 was amplified by the PCR method using primers 5 and 6 (Table 4). After being treated with restriction enzymes NdeI and BamHI, a PCR fragment was bound to an NdeI restriction enzyme site and a BamHI restriction enzyme site of a pET-22b plasmid (product of Novagen). Then, the plasmid was transformed into an AG1 (DE3) Escherichia coli strain to form a PdxA expressing strain (γ). Localization of the expressed PdxA in a cytoplasmic compartment was confirmed by conducting an analysis based on the method disclosed in page 121 of Vol. 353 of METHODS IN ENZYMOLOGY (2002). […]
(4) Then, the solution was allowed to stand at 37° C. for 1 hour. […] Here, the quantification of the recombinant protein in the resulting solution was carried out by ELISA assay with use of an anti-His-tag antibody. The sample prior to the centrifugation in the process (3) was treated with ultrasonic waves (200 W, 10 minutes) and the quantification of the recombinant protein therein was similarly carried out by ELISA assay with use of an anti-His-tag antibody. The ratio of lysed bacteria was obtained with use of Escherichia coli (γ), and the secretion efficiencies of the recombinant proteins of Escherichia coli (α) and (β) were calculated by using the following formula. […]
“Z” represents the ratio of lysed bacteria obtained with use of Escherichia coli (γ), which is determined by the following formula: Z=Z1/Z2. […]

[2] = test system: Escherichia coli (β); test: Shake culture with surfactant, time course of protein production (Example 1, FIG. 1); format: cell-based; details: surfactant 1%; after 21 hours from the initiation
Procedure: Escherichia coli (β) was inoculated in 10 mL of an LB culture medium and was shake-cultured at 37° C. overnight. In this manner, a culture solution was prepared. The strains were collected using a centrifuge and the collected Escherichia coli (β) strain was resuspended in 10 ml of a TB culture medium (product of Difco). Shake culture at 37° C. induced expression of torA. Sampling was performed after 0, 0.5, 1, and 2 hours from the start of the shake culture, and harvesting using a centrifuge was carried out for each sampled solution. Collected bacterial cells were suspended in a buffer solution (50 mM Tris (pH 7.5), 100 mM NaCl) and ultrasonic fragmentation was performed (200 W, 10 minutes). Then, an SDS-PAGE analysis was performed to quantify the produced recombinant protein band. Based on the obtained data, the protein amount per gram of the bacterial cell was calculated and a graph was constructed.
The same processes were carried out as in Comparative Example 1 except that the surfactant A-7 was used as the surfactant (A) for the expression induction in an amount of 1% on the basis of the weight of the culture solution, and that sampling was performed after 0, 2, 4, 15, 19, and 21 hours from the initiation and analysis was performed on the supernatants of the centrifuged samples. A graph was similarly constructed.

Substance	Secretion efficiency (%) Escherichia coli (β) [1] [%]	Dried cell density of the culture solution [2] [g/L]
Cured palm oil fatty acid amidopropyl dimethyl aminoacetate betaine [A-6]	85.4	–
Polyoxyethylene(3 mol)tridecyl ether sodium acetate [A-1]	98.2	–
Sodium cocaminopropionate [A-7]	–	1.72
